This is an account of results in ChEMBL document CHEMBL1201862, “PubChem BioAssay data set” (2004).

The source made the active and inactive calls.

The target of one assay is Mu-type opioid receptor (Homo sapiens, UniProt P35372). It is filed as functional, cell-based.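 Note: U2OS cells with beta-arrestin recruitment to OPRM1 by beta-gal complementation.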
Assay [1] concerns the target 5-hydroxytryptamine receptor 2A (Mus musculus, UniProt P35363). It is filed as functional, cell-based.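 Note: CHO-K1 cells with tagged receptor and beta-arrestin; agonist potency measured as compound-induced activation of the receptor.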
Assay [2] in a line: HEK293T cytotoxicity, dose response, cytotoxicity control for miR-122 modulator project, cell-based, inhibitor set, cherry-pick, set 2 (AID 720697). The assay is classed as functional.
Assay [3] in a line: inhibitors of HIV Env-driven cell fusion, dose response, cherry-pick (AID 652057). It is filed as functional, cell-based.
The nature of assay [4]: inhibitors of clade B AD8 Env fusion, dose response, cell-based, cherry-pick (AID 652062).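 Note: luciferase signal from cell-cell fusion driven by HIV-1 clade B AD8 Env; potency is for inhibitors of fusion seen as a drop in luminescence.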 The assay is classed as functional.
A short description of assay [5]: HeLa cell cytotoxicity, dose response, cytotoxicity control for MgcRacGAP inhibitor project (AID 624300). The assay is classed as functional.
Assay [6] has as its target T1, Rac GTPase-activating protein 1 (Homo sapiens, UniProt Q9H0H5).
T1 sequence (Q9H0H5 whole entry): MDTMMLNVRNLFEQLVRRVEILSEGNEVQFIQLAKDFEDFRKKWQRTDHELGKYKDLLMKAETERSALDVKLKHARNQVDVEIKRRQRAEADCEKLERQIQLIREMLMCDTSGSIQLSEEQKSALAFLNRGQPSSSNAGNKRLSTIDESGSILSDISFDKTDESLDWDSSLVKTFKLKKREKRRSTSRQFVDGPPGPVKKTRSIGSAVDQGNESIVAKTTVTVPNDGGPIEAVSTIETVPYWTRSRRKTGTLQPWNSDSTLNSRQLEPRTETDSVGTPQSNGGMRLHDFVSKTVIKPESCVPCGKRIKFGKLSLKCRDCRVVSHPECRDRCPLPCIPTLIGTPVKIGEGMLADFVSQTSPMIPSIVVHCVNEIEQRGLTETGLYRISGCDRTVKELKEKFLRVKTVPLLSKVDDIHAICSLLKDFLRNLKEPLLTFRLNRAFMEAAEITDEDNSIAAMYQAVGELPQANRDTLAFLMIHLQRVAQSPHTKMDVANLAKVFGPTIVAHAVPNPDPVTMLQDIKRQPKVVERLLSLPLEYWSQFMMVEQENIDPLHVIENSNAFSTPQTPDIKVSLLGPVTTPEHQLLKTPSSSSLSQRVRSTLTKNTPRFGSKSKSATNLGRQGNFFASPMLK
The experiment in a line: MgcRacGAP GTPase-activating activity inhibitors, confirmation, biochemical, ADP Hunter fluorescence, primary and confirmatory (AID 624330). The assay is classed as functional.

For the next assay, the target named is Major prion protein (Homo sapiens, UniProt P04156). The assay is classed as functional, cell-based.
For the next assay, the target named is Paired box protein Pax-8 (Homo sapiens, UniProt Q06710). Briefly: inhibitors of PAX8-driven TPO luciferase reporter, dose response, RMG-I cells, cherry-pick (AID 687027).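 Note: luciferase reporter driven by Pax8 target thyroperoxidase promoter measured by SteadyGlo luminescence.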 It is filed as functional, cell-based. A general note: In a reporter assay the amount or activity of a reporter protein is the signal.
The nature of assay [7]: cytotoxicity in OVCAR8 ovarian cancer cells, dose response, PAX8 project, cell-based, plate reader, dry powder samples (AID 743197). The assay is classed as functional. The settings on record: OVCAR-8.
A short description of assay [8]: intracellular Trypanosoma cruzi inhibitors in host cells – cell-based, plate reader, cherry-pick samples, set 3, dose response (AID 651818).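 Note: compounds incubated with infected cells for about four days.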 The assay is classed as functional.
Assay [9] concerns the target Disintegrin and metalloproteinase domain-containing protein 17 (Homo sapiens, UniProt P78536). The experiment in a line: exosite inhibitors of ADAM17, dose response, biochemical (AID 743260).
The nature of assay [10]: ADAM10 protease inhibitors, dose response, selectivity assay for ADAM17 exosite inhibitor project, biochemical, FRET peptide substrate, recombinant human ADAM10 (AID 743259).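 Note: ADAM10 enzyme cleaving a FRET peptide substrate.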
The nature of assay [11]: NIH-3T3 fibroblast cytotoxicity, dose response, cytotoxicity control, cell-based, fluorescence, Alamar Blue, secondary assay (AID 2327).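 Note: NIH-3T3 mouse fibroblasts cultured with fluconazole at 8 µg/mL.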 It is filed as functional. In general terms: The colour change of resazurin is a common sign of viable cells or microbes.
Assay [12] in a line: C. albicans growth with fluconazole, confirmation, fluorescence, retest (AID 2467). The assay is classed as functional, cell-based.
The target in another assay is Large T antigen (Simian virus 40, UniProt P03070). It is filed as functional, Betapolyomavirus macacae.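 Note: Confirmatory-stage PubChem screen for compounds that inhibit SV40 T antigen.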
The target in assay [13] is T2, Serine/threonine-protein phosphatase (Candida dubliniensis (strain CD36 / CBS 7987 / NCPF 3949 / NRRLY-17841) (Yeast), UniProt B9W6M3).
T2 sequence (B9W6M3 whole entry): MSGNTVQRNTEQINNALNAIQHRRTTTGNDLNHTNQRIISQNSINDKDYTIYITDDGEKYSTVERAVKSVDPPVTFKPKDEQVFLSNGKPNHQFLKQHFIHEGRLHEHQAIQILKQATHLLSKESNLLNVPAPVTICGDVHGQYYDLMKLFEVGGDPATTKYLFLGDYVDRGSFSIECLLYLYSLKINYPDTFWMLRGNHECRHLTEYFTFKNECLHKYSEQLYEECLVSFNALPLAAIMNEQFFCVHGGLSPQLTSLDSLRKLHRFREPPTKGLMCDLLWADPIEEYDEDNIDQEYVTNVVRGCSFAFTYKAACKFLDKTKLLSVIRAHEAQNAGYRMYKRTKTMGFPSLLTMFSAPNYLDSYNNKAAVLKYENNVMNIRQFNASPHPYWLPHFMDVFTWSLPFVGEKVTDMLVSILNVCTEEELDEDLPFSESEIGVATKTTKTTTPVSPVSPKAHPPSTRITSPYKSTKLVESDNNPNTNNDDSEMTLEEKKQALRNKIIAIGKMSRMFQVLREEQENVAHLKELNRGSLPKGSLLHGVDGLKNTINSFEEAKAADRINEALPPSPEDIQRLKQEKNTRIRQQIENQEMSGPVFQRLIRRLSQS
The experiment in a line: calcineurin pathway inhibitors in yeast reporter, dose response, S. cerevisiae, CDRE-lacZ, luminescence, secondary (AID 2388).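 Note: yeast reporter cells carrying a calcineurin-responsive lacZ construct stimulated with calcium chloride; luminescent beta-galactosidase reporter signal in whole cells rather than isolated phosphatase activity; potency for inhibition where a drop in reporter signal means calcineurin blockade.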 The assay is classed as functional, cell-based.

Assay [14] addresses ATP-dependent molecular chaperone HSP82 (Candida albicans (strain WO-1) (Yeast), UniProt C4YTQ8). The experiment in a line: loss of DOC-induced GRE-beta-galactosidase reporter signal, dose response, Hsp90 inhibitor project, S. cerevisiae, luminescence (AID 2400).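 Note: beta-galactosidase luminescence from glucocorticoid response element reporter as proxy for Hsp90 function; inhibitor potency where signal loss means Hsp90 inhibition.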 The assay is classed as functional, cell-based.
Assay [15] can be described thus: microbe, parasite or virus in culture. The assay is classed as functional. The settings on record: Mycobacterium tuberculosis.

One may read the EC50 as the concentration that produces a half-maximal response. Turning to `COc1cccc(N2CCN(Cc3nc(N)nc(N4CCCc5ccccc54)n3)CC2)c1`, the EC50 was 92.4 µM (inactive) at Mu-type opioid receptor and 76100 nM (inactive) in assay [1].

As a reminder, the AC50 is the concentration at which the activity in the assay is half-maximal. As to `C[C@H](NC(=O)C[C@@H]1CC[C@H]2[C@H](COc3ccc(NS(=O)(=O)c4ccc(Cl)cc4)cc3C(=O)N2C)O1)c1ccccc1`, the AC50 in assay [2] was 9.74 µM (active).

As to `Cc1ccccc1S(=O)(=O)N1C[C@H](O)COC[C@H]2O[C@@H](CC(=O)NCc3ccccc3Cl)CC[C@@H]21`, the AC50 was 1.12 µM (active) in [3] and 6.43 µM (active) in [4].

Usually IC50 stands for the concentration needed to halve the response being measured. In the case of `Cn1nccc1C(=O)Nc1ccc(OC(=O)c2ccnn2C)cc1`, the CC50 in assay [5] was 100 µM (active). The IC50 in assay [6] was 16.7 µM (active).

Consider `CCOC(=O)NC(=O)CSc1cc(C)c2cc(C)cc(C)c2n1`, for which the IC50 was 9.4 µM (active) on Major prion protein and > 138 µM (inactive) in the assay “cells”.

On to `C[C@@H]1CCCCO[C@@H](CN(C)Cc2ccncc2)[C@H](C)CN([C@H](C)CO)C(=O)c2cc(NC(=O)Nc3ccc(C(F)(F)F)cc3)ccc2O1`, for which the values for the half-maximal activity concentration (AC50) (at Paired box protein Pax-8; in assay [7]) were 6.48 µM (active) and 53.8 µM (active), respectively.

As to `C[C@@H]1CCCCO[C@H](CN(C)S(=O)(=O)c2cccs2)[C@@H](C)CN([C@H](C)CO)C(=O)c2cc(NC(=O)Nc3ccc(C(F)(F)F)cc3)ccc2O1`, the AC50 in assay [8] is 4.91 µM (active).

`COc1ccc(CN(C)C[C@H]2Oc3ccc(NC(=O)Nc4ccc(C(F)(F)F)cc4)cc3CC(=O)N([C@H](C)CO)C[C@H]2C)cc1`: in assay [8], the concentration at half-maximal activity (AC50) was 3.5 µM (active).

In the case of `COc1ccc(NC(=O)C2(C)Cc3c(-c4cccc(C(F)(F)F)c4)ccnc3O2)cn1` (stereo unspecified), the IC50 in assay [9] was > 69.5 µM (inactive); in [10], 32.4 µM (inactive).

Regarding `CCOc1cccc(OCCOc2ccc(C(=O)c3ccccc3)cc2)c1`, the IC50 in assay [9] and in [10] was > 69.5 µM (inactive) in each case.

As for `COC(=O)CSc1nc(-c2ccccc2)nc2ccc(F)cc12`, the IC50 at Major prion protein is 2.56 µM (active); in “cells”, > 138 µM (inactive).

With `CCc1cc(S)n2c(nc3ccccc32)c1C#N`, the EC50 was > 150 µM (inactive) in [11], 254 nM (active) in assay [12], > 180 µM (inactive) in assay [13] and > 150 µM (inactive) in assay [14]. At Large T antigen, the IC50 was 99.8 µM (active).

As to `CCCN1CCC[C@H](c2cccc(O)c2)C1`, the EC50 at Mu-type opioid receptor is 92.4 µM (inactive); in assay [1], 711 nM (active).

Turning to `CCN(c1ccccc1)S(=O)(=O)c1ccc(N2CCN(c3ccc(O)cc3)CC2)nc1`, in assay [5], the CC50 was 100 µM (active). The IC50 in assay [6] was 40.5 µM (active).

In the case of `C[C@@H]1CCCCO[C@@H](CN(C)Cc2ccc(Cl)c(Cl)c2)[C@H](C)CN([C@@H](C)CO)C(=O)c2cc(NS(=O)(=O)c3ccc(Cl)cc3)ccc2O1`, the AC50 at Paired box protein Pax-8 was 7 µM (active); in [7] it was 44 µM (active).

Regarding `Cc1ccc(S(=O)(=O)Nc2cccc3c2O[C@@H](CN(C)Cc2ccc(Oc4ccccc4)cc2)[C@@H](C)CN([C@H](C)CO)C3=O)cc1`, the AC50 was 2.89 µM (active) in [8] and 12.2 µM (active) on Paired box protein Pax-8.

Regarding `Cc1ccnc(Sc2ccc([N+](=O)[O-])cc2[N+](=O)[O-])n1`, the EC50 in assay [11] is 14.2 µM (active); in assay [12], 910 nM (active); in assay [13], > 180 µM (inactive); in assay [14], 23.6 µM (active). In assay [15], the CC50 was 7.25 µM (active).

For `c1ccc(N2CCN(Cc3ccc4c(c3)OCO4)CC2)nc1`, the EC50 at Mu-type opioid receptor is 92.5 µM (inactive); in [1] it was 22.8 nM (active).

As to `CCCn1c(N)c(C(=O)CSc2nncs2)c(=O)[nH]c1=O`, the half-inhibitory concentration (IC50) was 5.88 µM (active) at Major prion protein and > 138 µM (inactive) in the assay “cells”.
